Measurements taken from paper PMC6407592, “Novel Re(I) tricarbonyl coordination compounds based on 2-pyridyl-1,2,3-triazole derivatives bearing a 4-amino-substituted benzenesulfonamide arm: synthesis, crystal structure, computational studies and inhibitory activity against carbonic anhydrase I, II, and IX isoforms†” (Journal of Enzyme Inhibition and Medicinal Chemistry, 2019).

What was measured:
hCA I = hCA I (Homo sapiens, UniProt P00915); assay: stopped-flow CO2 hydrase assay, hCA I
Experimental: (§1) An Applied Photophysics stopped-flow instrument was used for assaying the CA catalysed CO2 hydration activity. […] In particular, CO2 was bubbled in distilled deionised water for 30 min so that the water was saturated (the concentration at a specific temperature is known from literature). In addition, a CO2 assay kit (from Sigma) was used to measure the concentration in variously diluted solutions obtained from the saturated one (which was kept at the same temperature and a constant bubbling during the experiments). […] The uncatalysed rates were determined in the same manner and subtracted from the total observed rates. Stock solutions of inhibitor (0.1 mM) were prepared in distilled-deionised water and dilutions up to 0.01 nM were done thereafter with distilled-deionised water. Inhibitor and enzyme solutions were pre-incubated together for 15 min–2 h (or longer, i.e. 4–6 h) at room temperature (at 4 °C for the incubation periods longer than 15 min) prior to assay, in order to allow for the formation of the E-I complex. […]

hCA II = hCA II (Homo sapiens, UniProt P00918); assay: stopped-flow CO2 hydrase assay, hCA II
Experimental: as §1

hCA IX = hCA IX (Homo sapiens, UniProt Q16790); assay: stopped-flow CO2 hydrase assay, hCA IX
Experimental: An Applied Photophysics stopped-flow instrument was used for assaying the CA catalysed CO2 hydration activity. […] In particular, CO2 was bubbled in distilled deionised water for 30 min so that the water was saturated (the concentration at a specific temperature is known from literature). In addition, a CO2 assay kit (from Sigma) was used to measure the concentration in variously diluted solutions obtained from the saturated one (which was kept at the same temperature and a constant bubbling during the experiments). […] The uncatalysed rates were determined in the same manner and subtracted from the total observed rates. Stock solutions of inhibitor (0.1 mM) were prepared in distilled-deionised water and dilutions up to 0.01 nM were done thereafter with distilled-deionised water. Inhibitor and enzyme solutions were pre-incubated together for 15 min–2 h (or longer, i.e. 4–6 h) at room temperature (at 4 °C for the incubation periods longer than 15 min) prior to assay, in order to allow for the formation of the E-I complex. The inhibition constants were obtained by non-linear least-squares methods using PRISM 3 and the Cheng-Prusoff equation[25] ^, [26], as reported earlier, and represent the mean from at least three different determinations. hCA I was purchased by Sigma-Aldrich and used without further purification, whereas all the other hCA isoforms were recombinant ones obtained in-house as reported earlier[27] ^, [28].

hCA I, sequence (P00915 whole entry): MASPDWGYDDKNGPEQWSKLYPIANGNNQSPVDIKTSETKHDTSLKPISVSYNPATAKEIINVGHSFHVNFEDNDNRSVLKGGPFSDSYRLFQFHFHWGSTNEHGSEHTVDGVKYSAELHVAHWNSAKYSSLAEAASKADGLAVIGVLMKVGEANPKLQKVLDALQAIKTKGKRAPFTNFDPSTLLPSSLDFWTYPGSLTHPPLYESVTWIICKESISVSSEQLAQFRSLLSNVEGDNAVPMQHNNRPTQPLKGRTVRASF

Ki (hCA I) | Ki (hCA II) | melting point | Ki (hCA IX) | Selectivity ratio I/IX (hCA IX; KI hCA I / KI hCA IX) | Selectivity ratio II/IX (hCA IX; KI hCA II / KI hCA IX) | fold higher affinity than its rhenium complex 4a (hCA IX; hCA IX, Ki(3a) vs Ki(4a)) | SMILES
181 nM | 4.1 nM | 244 to 248 °C | 2.8 nM | 64.75 | 1.46 | 7 fold | NS(=O)(=O)c1ccc(-n2cc(-c3ccccn3)nn2)cc1 [3a, 4-(4–(2-pyridyl)-1H-1,2,3-triazol-1-yl)-benzenesulfonamide]
305 nM | 56.1 nM | 192 to 195 °C | – | – | – | – | NS(=O)(=O)c1ccc(Cn2cc(-c3ccccn3)nn2)cc1 [3b, 4–(4-(2-pyridyl)-1H-1,2,3-triazol-1-ylmethyl)-benzenesulfonamide]
